Experimental data reported in US12264156B2, “Compounds and pharmaceutical compositions thereof for the treatment of diseases” (GALAPAGOS NV, priority 2018, dated 2025).

Legend:
SIK3 = target: T1, SIK3 (Homo sapiens, UniProt Q9Y2K2); assay: ADP-Glo kinase assay, SIK3; type: biochemical; settings: ADP-Glo SIK kinase assay
T1 construct: purchased SignalChem S12-11G-100
Summary of the method: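 ADP-Glo luminescent assay of ADP formed by SIK2 or SIK3 with substrate after ATP addition, 120 min at RT. Remaining ATP depleted 40 min, then ADP converted to ATP and read by luciferase luminescence after 30 min. Controls: 1% DMSO and 10 μM staurosporine (final).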

[1] = tested on: LPS-induced TNFα in monocyte-derived macrophages (MdM); assay: MdM assay: LPS-triggered TNFα (ELISA); type: cell-based, human; settings: Homo sapiens, Macrophage, 20 h, monocyte-derived macrophages, LPS 200 ng/mL, supernatant after 20 h; read-out: TNFα EC50
Summary of the method: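 Human monocyte-derived macrophages from CD14+ bead-selected buffy-coat PBMCs, used on day 10, pre-treated with compound for 1 h at 37 °C (0.2% DMSO), then stimulated with 200 ng/mL LPS. Supernatant taken after 20 h for TNFα sandwich ELISA (IL-10 at 2 h).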

SIK1 = target: T2, SIK1 (Homo sapiens, UniProt P57059); assay: ADP-Glo kinase assay, SIK1; type: biochemical; settings: ADP-Glo SIK kinase assay
T2 construct: purchased Carna Biosciences 02-131
Summary of the method: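 Enzyme–substrate mix was started with ATP and incubated 120 min at RT. ADP formed was quantified by ADP-Glo: 40 min ATP depletion, then 30 min detection reagent converting ADP to ATP for luciferase luminescence, which rises with kinase activity. Controls: 1% DMSO and 10 μM staurosporine (final).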

T2 sequence (P57059 whole entry): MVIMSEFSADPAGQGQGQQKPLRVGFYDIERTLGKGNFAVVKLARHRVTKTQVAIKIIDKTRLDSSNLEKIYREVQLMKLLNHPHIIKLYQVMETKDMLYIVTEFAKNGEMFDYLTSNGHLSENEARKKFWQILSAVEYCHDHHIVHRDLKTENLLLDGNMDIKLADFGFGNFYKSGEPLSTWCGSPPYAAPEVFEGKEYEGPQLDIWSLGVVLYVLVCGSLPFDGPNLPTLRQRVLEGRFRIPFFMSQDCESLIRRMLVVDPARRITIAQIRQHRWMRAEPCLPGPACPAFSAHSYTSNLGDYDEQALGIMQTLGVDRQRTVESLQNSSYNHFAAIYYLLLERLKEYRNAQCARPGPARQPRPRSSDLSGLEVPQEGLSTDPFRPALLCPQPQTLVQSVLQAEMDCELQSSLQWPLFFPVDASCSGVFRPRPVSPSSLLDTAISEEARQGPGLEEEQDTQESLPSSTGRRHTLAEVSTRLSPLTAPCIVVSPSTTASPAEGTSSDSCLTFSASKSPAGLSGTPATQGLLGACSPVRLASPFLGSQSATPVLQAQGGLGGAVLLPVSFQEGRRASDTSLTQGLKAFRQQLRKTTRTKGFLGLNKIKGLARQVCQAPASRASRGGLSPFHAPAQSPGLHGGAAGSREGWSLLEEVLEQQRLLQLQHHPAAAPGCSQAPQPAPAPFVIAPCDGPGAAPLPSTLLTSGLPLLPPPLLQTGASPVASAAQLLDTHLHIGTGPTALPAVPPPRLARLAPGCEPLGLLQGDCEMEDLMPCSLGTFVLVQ
T1 sequence (Q9Y2K2 whole entry): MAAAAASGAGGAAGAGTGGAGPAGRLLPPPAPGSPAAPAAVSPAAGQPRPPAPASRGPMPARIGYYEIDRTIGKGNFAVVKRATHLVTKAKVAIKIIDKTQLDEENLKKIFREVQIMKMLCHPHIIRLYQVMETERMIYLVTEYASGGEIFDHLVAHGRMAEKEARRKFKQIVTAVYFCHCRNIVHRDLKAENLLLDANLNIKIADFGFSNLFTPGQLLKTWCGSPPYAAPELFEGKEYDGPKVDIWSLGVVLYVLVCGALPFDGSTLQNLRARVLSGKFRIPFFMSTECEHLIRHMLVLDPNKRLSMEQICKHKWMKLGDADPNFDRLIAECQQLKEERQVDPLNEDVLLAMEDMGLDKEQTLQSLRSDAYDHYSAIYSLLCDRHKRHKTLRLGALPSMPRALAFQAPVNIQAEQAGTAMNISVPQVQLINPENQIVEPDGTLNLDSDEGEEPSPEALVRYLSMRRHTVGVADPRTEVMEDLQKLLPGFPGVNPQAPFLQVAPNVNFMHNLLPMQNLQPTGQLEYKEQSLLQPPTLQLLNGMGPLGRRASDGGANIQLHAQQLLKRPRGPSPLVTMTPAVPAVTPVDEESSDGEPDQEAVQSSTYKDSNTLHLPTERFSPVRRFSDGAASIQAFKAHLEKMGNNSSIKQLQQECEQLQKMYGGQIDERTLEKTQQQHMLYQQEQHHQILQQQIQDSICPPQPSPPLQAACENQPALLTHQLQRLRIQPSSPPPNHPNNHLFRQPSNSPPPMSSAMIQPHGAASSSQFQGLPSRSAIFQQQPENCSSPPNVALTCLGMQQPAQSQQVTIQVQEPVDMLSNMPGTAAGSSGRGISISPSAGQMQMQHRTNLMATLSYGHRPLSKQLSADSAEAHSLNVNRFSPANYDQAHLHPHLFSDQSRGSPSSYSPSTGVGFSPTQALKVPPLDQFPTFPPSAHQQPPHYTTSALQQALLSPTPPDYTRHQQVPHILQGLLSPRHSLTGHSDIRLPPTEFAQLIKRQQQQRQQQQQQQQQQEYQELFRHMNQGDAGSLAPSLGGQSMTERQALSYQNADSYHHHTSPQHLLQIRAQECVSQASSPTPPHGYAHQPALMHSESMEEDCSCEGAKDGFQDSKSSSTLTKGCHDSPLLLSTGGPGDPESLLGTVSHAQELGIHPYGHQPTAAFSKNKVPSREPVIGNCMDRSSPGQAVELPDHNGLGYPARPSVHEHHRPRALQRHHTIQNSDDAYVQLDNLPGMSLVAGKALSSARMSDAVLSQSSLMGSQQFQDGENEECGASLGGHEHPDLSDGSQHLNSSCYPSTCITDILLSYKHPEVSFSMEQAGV

Row | Structure (SMILES) | IC50 (SIK3) [nM] | EC50 [1] [nM] | IC50 (SIK1) [nM]
1 | CCN1CCCCC1COc1ccn2c(-c3cc(OC)c(C(=O)NC4CC4)c(OC(F)F)c3)cnc2c1 (stereo not drawn) [compound 83, N-cyclopropyl-2-(difluoromethoxy)-4-[7-[(1-ethyl-2-piperidyl)methoxy]imidazo [1,2-a]pyridin-3-yl]-6-methoxy-benzamide] | 0.01 to 10 | 100 to 1000 | 100 to 500
2 | COc1cc(-c2cnc3cc(OCC4(F)CN(C)C4)ccn23)cc2c1C(=O)N(CC(F)(F)F)CC2 [compound 252, 6-[7-[(3-fluoro-1-methyl-azetidin-3-yl)methoxy]imidazo[1,2-a]pyridin-3-yl]-8-methoxy-2-(2,2,2-trifluoroethyl)-3,4-dihydro isoquinolin-1-one] | 0.01 to 10 | 100 to 1000 | 100 to 500
3 | COc1cc(-c2cnc3cc(OCCN4CCOCC4)ccn23)cc2c1C(=O)N(CC(F)F)CC2 [compound 218, 2-(2,2-difluoroethyl)-8-methoxy-6-[7-(2-morpholinoethoxy)imidazo [1,2-a]pyridin-3-yl]-3,4-dihydroisoquinolin-1-one] | 0.01 to 10 | 100 to 1000 | 100 to 500
4 | CN(C)CCOc1ccn2c(-c3cc4c(c(OC(F)F)c3)C(=O)N(CC(F)F)CC4)cnc2c1 [Cpd 150, 2-(2,2-difluoroethyl)-8-(difluoromethoxy)-6-[7-[2-(dimethylamino)ethoxy]imidazo[1,2-a]pyridin-3-yl]-3,4-dihydroisoquinolin-1-one] | 0.01 to 10 | 100 to 1000 | 100 to 500
5 | COc1cc(-c2cnc3cc(OC[C@H]4CN(C)CCO4)ccn23)cc2c1C(=O)N(CC(F)(F)F)CC2 [compound 190, 8-methoxy-6-[7-[[(2R)-4-methylmorpholin-2-yl]methoxy]imidazo[1,2-a]pyridin-3-yl]-2-(2,2,2-trifluoroethyl)-3,4-dihydro isoquinolin-1-one] | 0.01 to 10 | 100 to 1000 | 100 to 500

The remaining lines, values ahead:

Row | IC50 (SIK3) [nM] | EC50 [1] [nM] | IC50 (SIK1) [nM] | Structure (SMILES)
6 | 0.01 to 10 | 100 to 1000 | 100 to 500 | COc1cc(-c2cnc3cc(OC[C@@H]4CN(C)CCO4)ccn23)cc2c1C(=O)N(CC(F)(F)F)CC2 [compound 191, 8-methoxy-6-[7-[[(2S)-4-methylmorpholin-2-yl]methoxy]imidazo [1,2-a]pyridin-3-yl]-2-(2,2,2-trifluoroethyl)-3,4-dihydroisoquinolin-1-one]
7 | 0.01 to 10 | 0.1 to 100 | 10 to 100 | COc1cc(-c2cnc3cc(OCC(O)CN4CCCCC4)ccn23)cc(OC(F)F)c1C(=O)NC1CC1 (stereo not drawn) [Cpd 321, N-cyclopropyl-2-(difluoromethoxy)-4-[7-[2-hydroxy-3-(1-piperidyl)propoxy]imidazo [1,2-a]pyridin-3-yl]-6-methoxy-benzamide]
8 | 0.01 to 10 | 100 to 1000 | 10 to 100 | COc1cc(-c2cnc3cc(OCc4ccnn4C)ccn23)cc(OC(F)F)c1C(=O)NC1CC1 [compound 44, N-cyclopropyl-2-(difluoromethoxy)-6-methoxy-4-[7-[(2-methylpyrazol-3-yl)methoxy]imidazo[1,2-a]pyridin-3-yl] benzamide]
